Patent publication US20110244028A1, “METHOD OF SOLUBILIZING BIOLOGICALLY ACTIVE COMPOUNDS” (priority 2008, published 2011)
Like-named read-outs stand apart in the source and are kept apart here.

Columns and labels:
[1] = cited from earlier work
[2] = for precipitation in liposomal dispersion after neutralization: 100 mg phospholipid/ml liposomes ca 30 nm in isotonic glycerol
Procedure: Visual assessment may be supported by comparing the transmission optical density (OD) measurements before and after the compound is added when the system is at equilibrium. […] The figures should be at least 80% of the initial transmission value of the blank dispersion which is used as a control. […] When the liposome dispersions are not sufficiently transparent the loading process can nevertheless be followed by e.g. using microscopy techniques to detect unassociated drug particles.
A first aqueous suspension comprising SUVs is prepared in a micro-fiuidizer. The dispersion contains 100 mg phospholipid/ml in isotonic glycerol solution.

[3] = control experiment without phospholipid: isotonic glycerol solution neutralized to pH 7.0; format: physicochemical
Procedure: In a control experiment 25 μl of the 100 mg phenytoin/ml solution in 1 M NaOH is added to 1.0 ml of isotonic glycerol solution to make up 2500 μg phenytoin/ml.

[4] = cited from earlier work; remark: listed apart in the source
[5] = cited from earlier work; remark: listed apart in the source
[6] = 5 mg drug/ml, neutralized to pH 7.0 with NaOH
[7] = 5 mg drug/ml in isotonic glycerol solution, neutralized to pH 7.0 with NaOH
[8] = 2.5 mg drug/ml in isotonic glycerol solution, neutralized to pH 7.0

SMILES | precipitation in liposomal dispersion after neutralization [2, 6] | precipitation in control without lipid after neutralization [3, 7] | solubility at pH 1.2 [1] [μg/ml] | solubility in water at pH 7 [1] [μg/ml] | precipitation in control without lipid after neutralization [3, 8] | further results
O=C1NC(=O)C(c2ccccc2)(c2ccccc2)N1 [Phenytoin sodium] |  |  |  |  |  | solubility at pH 10-pH13 ([1]; pH 10-pH13, according to Martindale): freely soluble
CN1C(=O)CN=C(c2ccccc2)c2cc(Cl)ccc21 [diazepam] | remain dear without diazepam precipitates | precipitates out |  |  |  | 
CC(=O)N1CCN(c2ccc(OCC3COC(Cn4ccnc4)(c4ccc(Cl)cc4Cl)O3)cc2)CC1 (centres unmarked) [ketoconazole] | no precipitated ketoconazole can be seen | precipitates | 2729 | 2 |  | 
O=C1NC(=O)C(c2ccccc2)(c2ccccc2)N1 [phenytoin] |  |  |  | 3.7 | precipitates | Log P oil/water [4]: 2.3; solubility in water at pH 7 ([1]; listed as Phenytoin): 37 μg/ml; amount solubilized in the liposomes ([2]; pH 7): 2500 µg
OCCN(CCO)c1nc(N2CCCCC2)c2nc(N(CCO)CCO)nc(N3CCCCC3)c2n1 [dipyridamole] |  |  | 1753 | 5 | precipitates | pKa [5]: 6.4; precipitation in liposomal dispersion after neutralization ([2]; 2.5 mg drug/ml, neutralized to pH 7.0): No precipitated dipyridamole is noticed
